Consider one compound from patent publication US5281710A, “Dynemicin analogs: synthesis, methods of preparation and use” (The Scripps Research Institute, priority 1992, dated 1994).

For one series, the system named is M-21 melanoma cells. The series is described as follows: Sulforhodamine B cytotoxicity, M-21. Format: cell-based. Conditions: Homo sapiens, M21. The protocol:
(§1) In addition to the screening already discussed, several of the before-described compounds and chimeras were screened against several or all of a panel of ten to twenty-five cancerous cell lines as target cells and seven "normal" cell preparations. This screening utilized a sulforhodamine B cytotoxidity assay as discussed below.
(§2) IC50 values; i.e., the concentration of Compound required to kill one-half of the treated cells, were then calculated.
UCLA M-21 Institute, and originally obtained from […]

A further series has as its system SK-Mel-28 melanoma cells. The series is described as follows: Sulforhodamine B cytotoxicity, SK-Mel-28. It counts as cell-based. To be noted: Homo sapiens, SK-MEL-28, SK-Mel-28; read-out: IC50. An outline of the steps: (§3)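 Target cells, drawn from cancerous lines and normal preparations, are treated with compound and assessed by sulforhodamine B. From this, the concentration killing one-half of the treated cells is calculated as the IC50.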

Series [1] has as its system HT-29 colon carcinoma cells. The series can be described thus: Sulforhodamine B cytotoxicity, HT-29. It counts as cell-based. Conditions: Homo sapiens, HT-29, colon carcinoma H-29 (Table 4) / HT-29 (Table 5); read-out: IC50. An outline of the steps:
as §3

A short description of series [2]: Sulforhodamine B cytotoxicity, HMEC. It counts as cell-based, human. Conditions: human, read-out: cell viability. The protocol:
as §1, §2
HMEC Human mammary epithelial cells

The next series deals with φX174 Form I DNA. The series is described as follows: φX174 supercoiled DNA cleavage, agarose gel. It counts as biochemical.
For series [3], the system named is tumor cells and "normal" cells. The series can be described thus: Relative activity against tumor cells and normal cells. It counts as cell-based. An excerpt:
In contrast, 100 percent of normal human mammary epithelial cells (HMEC) were viable at the same concentration.

Series [4] has as its system L-1210 mouse lymphoma cells. The series can be described thus: Sulforhodamine B cytotoxicity, L-1210. It counts as cell-based. To be noted: L1210. The protocol: as §1, §2

SMILES strings stand for the structures.

What is called IC50 is the concentration needed to halve the response being measured. The viability is a read-out of living cells in per cent, often relative to untreated cells.

With `O=C(OCCS(=O)(=O)c1ccccc1)N1c2ccc(OCCO)cc2C23OC24CCCC3C#C/C=C\C#CC14` (centres unmarked) [Compound 153], the half-inhibitory concentration (IC50) was 1600 nM with M-21 melanoma cells, 3100 nM with SK-Mel-28 melanoma cells, 1600 nM in series [1] and 1.3 nM in series [4]. Further, the viability at 72 h in series [2] (10^-6 to 10^-7 M) is 100%. Moreover, the viability at 72 h, 0.01 µM in series [2] (10^-8 M) came out at 100%. Also, the DNA cleavage entry in the series on φX174 Form I DNA (1.0 mM, 24 hours, acidic pH) is listed as “no DNA cleavage activity”; in the series with φX174 Form I DNA (1.0 mM, 24 hours, pH 7.0 and higher), “some DNA cleavage activity”; with φX174 Form I DNA (pH 8.5, 24 or 48 hours, 37° C.), “strong DNA cleavage activity”. Further, the “selectivity between normal and cancer cells (qualitative)” value in series [3] was “relative selectivity for tumor cell lines as opposed to normal, untransformed cells”. Further, the “times more active against tumor cells than against normal cells” value in series [3] (except for the three melanoma cell lines) is on record as 10^1 -10^8 times.
